Experimental data as given in patent US20250205229A1, “DRUG FOR TREATING OR PREVENTING CHARCOT-MARIE-TOOTH DISEASE” (Kyoto University, priority 2022, published 2025).
Counter-ions that a name gives are not always drawn.

Experiments:
MFN1 gene = assay: Screening for MFN1 mRNA expression by qPCR in motor neurons derived from iPS cells of CMT patients with MFN2 mutations; assay type: cell-based, human; details: relative to vehicle (DMSO) defined as 1, motor neurons having the mutated MFN2 gene, compound added on day 10, RNA extracted on day 12
Source text: (§1) iPS cells established according to the method described in NPL 3 were used. The iPS cells were derived from peripheral-blood mononuclear cells (PBMCs) from CMT2 patients with MFN2 gene mutations (CMT1 (R94Q) and CMT2 (H128Y)) and healthy subjects without MFN2 mutations (Healthy). A feeder-free medium was used to perform maintenance culture of the iPS cells.
(§2) mRNA was extracted, and mRNA expression levels of MFN1 and MFN2 were quantified by qPCR.
(§3) The overview of the screening method is shown in the upper left of FIG. 2. Constructs expressing Lhx3, Ngn2, and Isl1 under tetracycline induction were introduced into the iPS cells using PiggyBac vectors, whereby stable lines were generated. Doxycycline was added to the iPS cells, and the iPS cells were cultured for 7 days using a neuro-differentiation medium to generate motor neurons (Imamura et al. Sci Transl Med 2017). […]
(§4) Screening was performed to search for existing drugs that increase the expression levels of the MIFN1 gene or MFN2 gene using the motor neurons having the mutated MFN2 gene. […] The expression levels of the MFN1 gene and the MFN2 gene are expressed as relative values with the mRNA expression levels thereof when a vehicle (DMSO) was administered being defined as 1.

MFN2 gene = assay: Screening for MFN2 mRNA expression by qPCR in motor neurons derived from iPS cells of CMT patients with MFN2 mutations; assay type: cell-based, human; details: relative to vehicle (DMSO) defined as 1, motor neurons having the mutated MFN2 gene, compound added on day 10, RNA extracted on day 12
Source text: as §1, §2, §3, §4

Row | Compound | Relative expression level of the MFN1 gene (MFN1 gene) | Relative expression level of the MFN2 gene (MFN2 gene)
1 | CC(C)N=c1cc2n(-c3ccc(Cl)cc3)c3ccccc3nc-2cc1Nc1ccc(Cl)cc1 [Clofazimine, N,5-bis(4-chlorophenyl)-3-propan-2-yliminophenazin-2-amine] | 1.889 | 1.197
2 | CC[C@@H](CO)NC(=O)[C@@H]1C=C2c3cccc4[nH]cc(c34)C[C@H]2N(C)C1 [Methylergometrine Maleate, (6aR,9R)—N—((S)-1-hydroxybutan-2-yl)-7-methyl-4,6,6a,7,8,9-hexahydroindolo[4,3-fg]quinoline-9-carboxamide maleate] | 2.007 | 3.676
